From publication PMC10638440, “Structural basis of bile salt extrusion and small-molecule inhibition in human BSEP” (Nature Communications, 2023)

Tests used:
BSEP [1] = biological target: T1, BSEP (Homo sapiens, UniProt O95342); test: cryo-EM structure of vanadate-trapped BSEP at […] Å; assay type: binding; set-up: gene ABCB11; full-length wild-type, nanodisc-reconstituted
BSEP [2] = biological target: T1, BSEP; set-up: gene ABCB11
BSEPE1244Q = biological target: T2, BSEPE1244Q (Homo sapiens, UniProt O95342, E1244Q); test: cryo-EM structure at […] Å; assay type: binding
T2 construct: gene ABCB11; full-length, nanodisc-reconstituted

BSEP N996A = biological target: T3, BSEP N996A (Homo sapiens, UniProt O95342, N996A); test: GBM-stimulated ATPase activity ([…] GBM); assay type: biochemical
T3 construct: gene ABCB11; full-length
T3 sequence (O95342 whole entry N996A): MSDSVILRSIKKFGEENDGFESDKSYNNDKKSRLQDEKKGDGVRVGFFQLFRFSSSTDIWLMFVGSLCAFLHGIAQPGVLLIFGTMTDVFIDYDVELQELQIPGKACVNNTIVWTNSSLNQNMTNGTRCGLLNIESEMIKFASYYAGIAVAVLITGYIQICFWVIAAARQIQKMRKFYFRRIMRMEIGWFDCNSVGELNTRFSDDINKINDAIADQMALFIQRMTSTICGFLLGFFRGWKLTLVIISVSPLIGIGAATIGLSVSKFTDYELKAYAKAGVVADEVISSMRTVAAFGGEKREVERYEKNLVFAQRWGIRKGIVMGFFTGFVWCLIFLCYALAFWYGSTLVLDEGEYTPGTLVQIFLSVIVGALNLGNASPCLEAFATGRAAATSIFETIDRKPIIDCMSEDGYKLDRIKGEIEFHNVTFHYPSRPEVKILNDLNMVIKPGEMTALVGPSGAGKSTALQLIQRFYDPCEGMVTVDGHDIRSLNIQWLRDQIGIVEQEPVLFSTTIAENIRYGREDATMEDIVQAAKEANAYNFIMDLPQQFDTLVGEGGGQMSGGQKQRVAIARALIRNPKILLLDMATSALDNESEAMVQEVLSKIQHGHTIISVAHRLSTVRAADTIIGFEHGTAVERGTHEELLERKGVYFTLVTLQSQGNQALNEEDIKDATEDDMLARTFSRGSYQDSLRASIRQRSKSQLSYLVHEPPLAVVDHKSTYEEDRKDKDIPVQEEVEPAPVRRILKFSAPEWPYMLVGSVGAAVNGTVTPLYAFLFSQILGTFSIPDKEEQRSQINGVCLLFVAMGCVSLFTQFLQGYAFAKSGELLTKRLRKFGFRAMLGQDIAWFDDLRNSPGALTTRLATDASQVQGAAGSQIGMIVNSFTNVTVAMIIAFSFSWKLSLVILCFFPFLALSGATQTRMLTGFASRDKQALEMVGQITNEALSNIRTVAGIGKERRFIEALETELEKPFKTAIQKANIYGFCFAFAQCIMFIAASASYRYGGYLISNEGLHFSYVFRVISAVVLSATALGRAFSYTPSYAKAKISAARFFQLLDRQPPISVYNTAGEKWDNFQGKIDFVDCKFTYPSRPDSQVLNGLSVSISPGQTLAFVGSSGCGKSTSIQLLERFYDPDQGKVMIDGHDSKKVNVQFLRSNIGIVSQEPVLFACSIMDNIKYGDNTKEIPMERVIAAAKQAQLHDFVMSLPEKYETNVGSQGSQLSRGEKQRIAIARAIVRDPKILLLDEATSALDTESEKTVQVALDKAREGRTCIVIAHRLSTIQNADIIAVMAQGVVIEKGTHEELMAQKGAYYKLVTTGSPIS

T1 sequence (O95342 whole entry): as the sequence (O95342 whole entry N996A) above, with A996N counted along it
T2 sequence (O95342 whole entry E1244Q): as the sequence (O95342 whole entry N996A) above, with A996N, E1244Q counted along it

## Nc1ncnc2c1ncn2[C@@H]1O[C@H](COP(=O)(O)OP(=O)(O)O)[C@@H](O)[C@H]1O [ADP]
BSEP [1]
  cryo-EM structure of vanadate-trapped BSEP at 2.8 Å: trapping ADP and preventing its release from NBS2

## Nc1ncnc2c1ncn2[C@@H]1O[C@H](CO[P@@](=O)(O)O[P@](=O)(O)OP(=O)(O)O)[C@@H](O)[C@H]1O [ATP]
BSEP [2]
  Km: 207 µM
BSEPE1244Q
  cryo-EM structure at 3.0 Å: We observed two distinct EM densities in the two NBSs, each corresponding to an ATP molecule

## COc1ccc(Cl)cc1C(=O)NCCc1ccc(S(=O)(=O)NC(=O)NC2CCCCC2)cc1 [GBM, glibenclamide]
BSEP N996A
  GBM-stimulated ATPase activity (300 μM GBM): N996A and S1022F exhibit increased basal ATPase activity compared to the wild-type BSEP, and their activity is stimulated by GBM
